From patent US20050159345A1 (Boehringer Ingelheim International GmbH, priority 2002, published 2005)
Where two headings read alike, the source gives them in different places.

Columns and labels:
[1] = target: T1, HCV 1a NS3-NS4A heterodimer protein (Hepatitis C virus genotype 1a, UniProt P27958); assay: In vitro HCV NS3 protease assay (fluorogenic depsipeptide), genotype 1a; assay type: biochemical
T1 construct: Co-purification of mature NS3 and NS4A protein complex was verified by Western blot analysis; made in house; host or cells: Sf21 insect cells, recombinant baculovirus (pFastBac HTa)
T1 sequence (P27958 1027-1657): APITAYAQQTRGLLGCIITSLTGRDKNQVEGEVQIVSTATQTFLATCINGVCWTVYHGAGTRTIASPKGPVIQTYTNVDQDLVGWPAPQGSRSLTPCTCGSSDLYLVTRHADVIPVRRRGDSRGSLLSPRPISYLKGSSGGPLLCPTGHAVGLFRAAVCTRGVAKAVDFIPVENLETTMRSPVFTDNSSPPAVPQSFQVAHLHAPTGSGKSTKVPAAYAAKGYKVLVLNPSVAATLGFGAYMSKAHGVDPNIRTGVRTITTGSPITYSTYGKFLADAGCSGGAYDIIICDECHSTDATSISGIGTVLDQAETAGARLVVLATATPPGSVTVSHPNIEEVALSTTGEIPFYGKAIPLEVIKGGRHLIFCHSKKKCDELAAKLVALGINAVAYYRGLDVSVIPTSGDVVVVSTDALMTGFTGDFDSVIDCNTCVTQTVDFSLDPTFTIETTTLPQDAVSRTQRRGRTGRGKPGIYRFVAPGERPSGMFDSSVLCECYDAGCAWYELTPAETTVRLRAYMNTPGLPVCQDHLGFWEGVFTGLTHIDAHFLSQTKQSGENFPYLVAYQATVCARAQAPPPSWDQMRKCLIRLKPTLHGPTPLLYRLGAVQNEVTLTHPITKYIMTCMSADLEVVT
T1 sequence (P27958 1658-1711): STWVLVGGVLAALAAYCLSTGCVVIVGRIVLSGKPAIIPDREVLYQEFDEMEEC
Description: For production of the HCV genotype 1b NS3-NS4A heterodimer protein, a full-length HCV cDNA was cloned by RT-PCR using RNA extracted from the serum of an HCV genotype 1b infected individual (provided by Dr. Bernard Willems, Hôpital St-Luc, Montréal, Canada). […] For HCV genotype 1a, the DNA encoding NS3-NS4A heterodimer protein was PCR-amplified (forward primer: 5′[sequence]3′ (SEQ ID No.3); reverse primer: 5′[sequence]3′ (SEQ ID No.4)) from the HCV genotype la strain H77 (provided by ViroPharma Inc., Exton, Pa., U.S.) and subcloned as described above. The cloning into the pFastBac™ HTa baculovirus expression vector generated a recombinant fusion protein containing an additional N-terminal 28 residues that comprised a hexahistidine tag and a rTEV protease cleavage site. The Bac-to-Bac™ baculovirus expression system (Gibco/BRL) was used to produce the recombinant baculovirus for protein expression.
His-tagged NS3-NS4A heterodimer protease was expressed by infecting Sf21 insect cells (Invitrogen) at a density of 10^6 cells/mL with the recombinant baculovirus at a multiplicity of infection of 0.1-0.2 at 27° C. The infected culture was harvested 48 to 64 h later by centrifugation at 4° C. The cell pellet was homogenized in 50 mM sodium phosphate, pH 7.5, 40% glycerol (w/v), 2 mM β-mercaptoethanol. His-NS3-NS4A heterodimer protease was then extracted from the cell lysate with 1.5% NP-40, 0.5% Triton X-100, 0.5M NaCl, and a DNase treatment. […]

[2] = target: T2, HCV 2b NS3-NS4A heterodimer protein (UniProt P26661); assay: In vitro HCV NS3 protease assay (fluorogenic depsipeptide), genotype 2b; assay type: biochemical, HCV genotype 2b; conditions: read-out: IC50 HCV-2b; HCV 2b NS3-NS4A protease
T2 construct: fused on or other part: 28 extra N-terminal residues with a hexahistidine tag and an rTEV cleavage site
T2 sequence (P26661 1031-1661): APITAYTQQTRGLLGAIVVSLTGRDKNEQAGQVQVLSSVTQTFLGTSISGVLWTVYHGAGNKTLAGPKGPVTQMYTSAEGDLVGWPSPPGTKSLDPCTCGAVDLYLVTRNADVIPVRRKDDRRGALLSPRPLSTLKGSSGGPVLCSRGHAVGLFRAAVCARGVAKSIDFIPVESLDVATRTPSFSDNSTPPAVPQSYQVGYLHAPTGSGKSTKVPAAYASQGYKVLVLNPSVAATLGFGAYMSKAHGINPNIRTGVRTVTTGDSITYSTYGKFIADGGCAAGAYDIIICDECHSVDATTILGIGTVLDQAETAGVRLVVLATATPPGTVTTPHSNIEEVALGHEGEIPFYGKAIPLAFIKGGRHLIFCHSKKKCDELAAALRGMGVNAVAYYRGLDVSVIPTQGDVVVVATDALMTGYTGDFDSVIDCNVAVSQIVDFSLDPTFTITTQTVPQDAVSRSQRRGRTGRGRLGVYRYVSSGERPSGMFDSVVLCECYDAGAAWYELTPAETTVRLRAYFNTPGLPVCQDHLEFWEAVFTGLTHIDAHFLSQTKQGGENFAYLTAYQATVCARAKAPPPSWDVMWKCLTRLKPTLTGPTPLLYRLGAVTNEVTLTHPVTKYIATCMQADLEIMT
Description: The NS3-NS4 protease genes of HCV genotypes 2b and 3a were amplified from RNA isolated from clinical samples of HCV-infected patients obtained from Dr. G. Steinmann (Germany) using RT-PCR. The primers used for the RT-PCR were 5′[…]3′ (SEQ ID No. 6) as the forward and 5′[…]3′ (SEQ ID No.7) as the reverse primer for the NS3-NS4A of HCV genotype 2b and; 5′[…]3′ (SEQ ID No. 8) as the forward and 5′[…]3′ (SEQ ID No. 9) as the reverse primer for HCV genotype 3a. Each primer contained a unique restriction site for subcloning the fragment in the bacterial expression vector pET11a. The cloning into the vector generated a recombinant fusion protein containing an additional N-terminal 28 residues that comprised a hexahistidine tag and a rTEV protease cleavage site. The recombinant plasmids were used to transform the bacterial strain BL21 DE3 pLysS for protein expression and recombinant protein expression was induced by the addition of IPTG. Following expression, the cells were collected by centrifugation at 4° C. and the cell pellet lysed in a buffer containing 50 mM sodium phosphate, 0.5M NaCl, 40% glycerol, 1.5% NP-40, 0.5% Triton X-100 and the soluble protein fraction was passed through a 5ml HiTrap chelating affinity column as described above. A poly(U)-Sepharose purification step can optionally be conducted in order to remove degradation products and contaminants. […]
The fluorescence was monitored using the BMG POLARstar Galaxy 96-well plate reader with an excitation filter of 320 nm, and an emission filter of 405 nm. The level of inhibition (% inhibition) of each well containing test compound was calculated with the following equation (FU=fluorescence unit): [formula]
The calculated % inhibition values were then used to determine IC50, slope factor (n) and maximum inhibition (Imax) by the non-linear regression routine NLIN procedure of SAS using the following equation: [formula] […]

[3] = target: T3, GBV-B NS3-NS4A heterodimer protein (Hepatitis GB virus B, UniProt Q69422); assay: In vitro GBV-B NS3 protease assay (HPLC); assay type: biochemical
T3 construct: The full length GBV-B NS3/NS4A protease gene was isolated from infected tamarin serum; made in house; host or cells: E. coli BL21 DE3 pLysS (pET-29)
T3 sequence (Q69422 1565-1615): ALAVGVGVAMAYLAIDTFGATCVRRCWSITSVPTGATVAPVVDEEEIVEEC
T3 sequence (Q69422 941-1564): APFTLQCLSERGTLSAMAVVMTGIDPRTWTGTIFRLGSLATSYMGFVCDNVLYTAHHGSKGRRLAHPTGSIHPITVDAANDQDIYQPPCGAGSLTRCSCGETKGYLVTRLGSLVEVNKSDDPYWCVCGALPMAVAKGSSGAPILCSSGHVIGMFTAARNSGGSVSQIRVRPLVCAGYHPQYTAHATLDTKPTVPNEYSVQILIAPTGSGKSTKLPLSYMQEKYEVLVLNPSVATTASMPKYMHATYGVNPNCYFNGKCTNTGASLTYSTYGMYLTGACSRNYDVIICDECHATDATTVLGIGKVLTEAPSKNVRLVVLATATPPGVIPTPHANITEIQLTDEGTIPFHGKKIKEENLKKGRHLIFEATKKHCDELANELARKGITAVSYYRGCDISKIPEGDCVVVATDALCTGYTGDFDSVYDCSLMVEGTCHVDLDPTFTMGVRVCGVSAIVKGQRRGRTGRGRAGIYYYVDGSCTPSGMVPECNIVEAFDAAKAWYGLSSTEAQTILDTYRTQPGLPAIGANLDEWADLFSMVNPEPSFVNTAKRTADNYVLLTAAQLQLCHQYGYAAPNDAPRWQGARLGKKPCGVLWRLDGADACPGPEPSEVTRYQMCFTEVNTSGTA
Description: The depsipeptide substrate used to assess inhibition of the protease activity of GBV-B NS3-NS4A heterodimer protein was Ac-DED(EDANS)EE-Abu[C(O)—O] ASK(DABCYL)-NH2 (SEQ ID No. 16) This substrate is cleaved between the aminobutyric (Abu) and the alanine residues and products of the reaction were analyzed by HPLC. The protease activity was assayed in 50 mM Tris-HCl;, pH 8.0, 0.25M sodium citrate, 0.01 % n-dodecyl-β-D-maltoside, 1 mM TCEP. The assay was performed in a Microfluor®2 White U-Bottom Microtiter® plate. 5 μM of the substrate and various concentrations of the test compounds were incubated with 0.4 nM of GBV-B NS3-NS4A heterodimer protein for 2 hours at 23° C. under gentle agitation. […] The reaction was terminated by the addition of a 1M 2-[N-morpholino]ethanesulfonic acid solution at pH 5.8. For quantification, the cleavage products and the substrate were separated by HPLC on a Perkin-Elmer® 3×3CR C8 column. The separation was accomplished by initially eluting at 3.5 mL/min with an aqueous solution containing 0.05% phosphoric acid and 3 mM SDS. A 0 to 45% acetonitrile linear gradient in 0.05% phosphoric acid was then applied for 10 minutes. The absorbance was monitored at 210 nm.

[4] = HCV 1a NS3-NS4A protease, read-out: IC50 HCV-1a

## COc1ccc2c(O[C@@H]3C[C@H]4C(=O)N[C@]5(C(=O)O)CC5/C=C\CCCCC[C@H](NC(=O)OC(C)(C)C)C(=O)N4C3)cc(-c3csc(NC(C)=O)n3)nc2c1 (stereo partly drawn) [III]
[1]; [4]
  IC50: 4.1 nM
[2]
  IC50: 510 nM
[3]
  IC50: 31000 nM

## COc1ccc2c(O[C@@H]3C[C@H]4C(=O)N[C@]5(C(=O)O)CC5/C=C\CCCCC[C@H](NC(=O)OC(C)(C)C)C(=O)N4C3)cc(-c3ccccc3)nc2c1 (stereo partly drawn) [II]
[1]; [4]
  IC50: 7.8 nM
[2]
  IC50: 1000 nM
[3]
  IC50: 36500 nM

## COc1ccc2c(O[C@@H]3C[C@H]4C(=O)N[C@]5(C(=O)O)CC5/C=C\CCCCC[C@H](NC(=O)OC5CCCC5)C(=O)N4C3)cc(-c3csc(NC(C)C)n3)nc2c1 (stereo partly drawn) [IV]
[1]
  IC50: 4.3 nM
[2]
  IC50: 260 nM
[3]
  IC50: 16000 nM
